Experimental findings from patent publication US8703825B2, “Compounds, use thereof as medicaments, and method of preparation thereof” (Universite de Lorraine, priority 2008, dated 2014) are described below.

SMILES strings stand for the structures. Converted amounts (≈) assume the structure as drawn. Read-outs that look alike come from different tables or passages of the source.

What is called IC50 is the concentration that gives 50% inhibition. A word on the CC50: it is the concentration that lowers cell viability or growth by half. Read a high CC50 as lower toxicity to the cells. A word on the MIC: it is the lowest concentration that inhibits growth of the organism.

Common to all, as to assay type: cell-based
The test system of data set [1] is MRC-5 cells (human embryonic fibroblasts). Nature of the data set: Cellular viability test (MTT test). To be noted: read-out: IC50 viability test (with MTT). From the text: (§1) The eukaryotic cells used in our study are HaCaT cells (human keratinocytes), which were kindly supplied by the Pierre Fabre Institute (Toulouse, France); and MRC-5 cells (human embryonic fibroblasts), which were obtained from the company BioMérieux (Lyons, France). These cells are cultivated in DMEM (“Dulbecco's modified Eagle's medium”, Invitrogen 61965) for the HaCaT cells, and MEM (“modified Eagle's medium”, Invitrogen 41090); 10% of fetal calf serum (FCS, Invitrogen, 10270, Batch 40Q5150K) in a humid chamber at 37° C., under 5% CO2. The HaCaT and MRC-5 cells were seeded at 10^4 cells/well in 96-well plates (Sarstedt 831835). After 48 h of growth, the culture medium is withdrawn and replaced with the various “test” solutions (volume=100 μL). After contact time of 24, 48 and/or 168 H,the viability or cytotoxicity tests are carried out.
(§2) a) Cellular Viability Tests (MTT Test)
(§3) In order to evaluate the effect of the various compounds tested on the viability of HaCaT and MRC-5 cells, the MTT technique (3-[4,5-dimethylthiazol-2-yl]-2,5-diphenyltetrazolium bromide; MTT, Aldrich, 135038), described by Mosmann [Mosmann T. Rapid colorimetric assay for cellular growth and survival: application to proliferation and cytotoxicity assays. J Immunol Methods. 1983; 65: 55-63] and modified by Grare et al. [Grare M, Mourer M, Fontanay S, Regnouf-de-Vains J B, Finance C, Duval R E. In vitro activity of para-guanidinoethylcalix[4]arene against susceptible and antibiotic-resistant Gram-negative and Gram-positive bacteria. J Antimicrob Chemother. 2007; 60: 575-81], was used.
(§4) It is based on the reduction of yellow tetrazolium salts to purple crystals of formazan, mainly by mitochondrial dehydrogenases. The quantity of formazan formed is proportional to the number of live cells. After the contact times of 24, 48 and/or 168 h with the different concentrations of the test molecules, 10 nI, of MTT (at 5 mg/mL) is added to each well and the plates are placed at 37° C. After incubation for 4 H,the insoluble crystals of formazan that have formed are dissolved by adding 100 μL SDS to each well. The absorbance is measured at 540 nm with a reference wavelength at 690 nm, using an ELISA plate reader (Multiskan E X, Thermo Electron Corporation, France). The results are the mean of the values obtained for 8 wells per concentration and per unit time. Each experiment was carried out 3 times.

For data set [2], the system named is HaCaT cells (human keratinocytes). Nature of the data set: Cellular viability test (MTT test). To be noted: read-out: IC50 viability test (with MTT).
Description: as §1, §2, §3, §4

For data set [3], the system named is Escherichia coli ATCC 25922. Nature of the data set: MIC by microdilution in liquid medium (CLSI / CA-SFM). To be noted: E. coli ATCC 25922; HaCaT cell lines, 24 h exposure.
The next data set can be described thus: in vitro. As to conditions: human.
Description: as §1
b) Cytotoxicity Tests (Neutral Red Test)
The cytotoxicity test is based on incorporation of a vital dye, Neutral Red, in the lysosomes of the viable cells, after exposure of the cells to different concentrations of the test molecules. The quantity of dye, after extraction from the lysosomes, is quantified by means of a spectrophotometer and compared with that obtained in the case of “control” cells, not exposed to the test molecules.
The test was carried out as described previously [Borenfreund E, Puerner J A. Toxicity determined in vitro by morphological alterations and neutral red absorption. Toxicol Lett 1985; 24: 119-24, and Grare M, Mourer M, Fontanay S, Regnouf-de-Vains J B, Finance C, Duval R E. In vitro activity of para-guanidinoethylcalix[4]arene against susceptible and antibiotic-resistant Gram-negative and Gram-positive bacteria. J Antimicrob Chemother. 2007; 60: 575-81].
After contact times of 24, 48 and/or 168 h with the different concentrations of the test molecules, the medium contained in each well is withdrawn and replaced with 200 μL of medium without phenol red (Invitrogen, 51200) containing 50 μg/mL of Neutral Red for an additional 3 h of incubation. The cells are then rinsed 3 times with PBS solution. After the last washing with PBS, 200 μL of a solution with 1% acetic acid/50% ethanol is added to each well to extract the dye from the lysosomes of the viable cells. The absorbance is measured at 540 nm, with a reference wavelength at 690 nm, by means of an ELISA plate reader (Multiskan E X, Thermo Electron Corporation, France). The results are the mean of the values obtained for 8 wells per concentration and per unit time. Each experiment was carried out 3 times.

The test system of data set [4] is Staphylococcus aureus ATCC 25923. Nature of the data set: MIC by microdilution in liquid medium (CLSI / CA-SFM). As to conditions: S. aureus ATCC 25923; HaCaT cell lines, 24 h exposure. On the technique in general: Dilution methods test growth across graded concentrations, often in twofold steps.
For data set [5], the system named is MRSA (mecA gene), methicillin-resistant S. aureus (SaR1). Nature of the data set: MIC by microdilution, clinical isolate. To be noted: Staphylococcus aureus. Here is the method:
The study also included 5 clinical isolates, obtained from rectal samples and/or from haemoculture: • […] E. coli (EcR1), • methicillin-resistant S. aureus (mecA gene) (SaR1), • vancomycin-resistant E. faecium (vanB gene) (EfR1), • E. faecalis resistant to teicoplanin and to vancomycin (vanA gene) (EfR2), and • P. aeruginosa overexpressing an efflux pump (PaRl).
The isolates were selected on the basis of their resistance profile. The resistance profiles were determined on VITEK2 (BioMérieux, France).
The bacteria are cultivated either on Mueller-Hinton agar (Difco, 225250), or in Mueller-Hinton broth (Difco, 275730), at 35° C. [Grare M, Mourer M, Fontanay S, Regnouf-de-Vains J B, Finance C, Duval R E. In vitro activity of para-guanidinoethylcalix[4]arene against susceptible and antibiotic-resistant Gram-negative and Gram-positive bacteria. J. Antimicrob Chemother. 2007; 60: 575-81].
The various molecules tested were prepared in the form of aqueous solution at 10^−2 mol/L. The solutions used for the biological tests are freshly prepared, and stored for a week at most, at 4° C. The solutions are filtered through a filter with pores of 0.22 μm (Millex®GP; 0.22 μm; Millipore; France) before each test.
Procedure for determining the Minimum Inhibitory Concentration (MIC)
The minimum inhibitory concentrations (MIC) were determined by the standardized method of microdilution in liquid medium (96-well microplate, U-shaped bottom, Greiner), in Mueller-Hinton broth, with a final inoculum of 10^5-10^6 CFU/mL, depending on the bacterial species, in accordance with the recommendations of the CLSI.
For the determination of MIC, bacterial suspensions are prepared from an isolated colony, taken from a Mueller-Hinton agar, taken up in 5 mL of Mueller-Hinton broth. After 24 h of growth, the bacterial suspensions are diluted in sterile distilled water in order to obtain an inoculum of 10^5-10^6 CFU/mL. The purity of the bacterial suspensions is tested by isolation on agar and Gram staining.
The results are the mean value of 4 independent experiments.

Setting [6] is: clinical isolate, MRSA (mecA gene), read-out: MIC.

Turning to `[H]/N=C(\N/C(=N/[H])NCCCCCCNC(=N)NC(=N)Nc1ccc(Cl)cc1)Nc1ccc(Cl)cc1` [CHX, chlorhexidine], the 50% inhibitory concentration (IC50) fell in the range of 16 to 32 mg/L (≈ 31.7 to 63.3 µM) in data set [1] (MRC5, MRC-5, 24 h); 8 to 16 mg/L (≈ 15.8 to 31.7 µM) in data set [1] (MRC5, MRC-5, 48 h); 1 to 2 mg/L (≈ 1.98 to 3.96 µM) in data set [1] (MRC5, MRC-5, 168 h); 8 to 16 mg/L (≈ 15.8 to 31.7 µM) in data set [2] (24 h); 4 to 8 mg/L (≈ 7.91 to 15.8 µM) in data set [2] (48 h); 2 to 4 mg/L (≈ 3.96 to 7.91 µM) in data set [2] (168 h). Moreover, the “Selectivity index (SI=IC50/MIC)” value in data set [3] is on record as 64-128; in data set [4] it was 32-64. The CC50 at 24 h in “in vitro” was 8 to 16 mg/L (≈ 15.8 to 31.7 µM). Moreover, in data set [5] (setting [6]), the MIC amounted to 0.5 mg/L (≈ 0.989 µM).

For `N=C(N)c1ccc(OCCCCCCOc2ccc(C(=N)N)cc2)cc1` [HX, hexamidine], the IC50 in data set [1] (MRC5, 24 h) was 32 to 64 mg/L (≈ 90.3 to 181 µM); in data set [1] (MRC5, 48 h) it was 16 to 32 mg/L (≈ 45.1 to 90.3 µM); in data set [1] (MRC5, 168 h), 4 to 8 mg/L (≈ 11.3 to 22.6 µM); in data set [2] (24 h) it was 32 to 64 mg/L (≈ 90.3 to 181 µM); in data set [2] (48 h), 16 to 32 mg/L (≈ 45.1 to 90.3 µM); in data set [2] (168 h) it was 4 to 8 mg/L (≈ 11.3 to 22.6 µM). The “Selectivity index (SI=IC50/MIC)” value in data set [3] is 4-8; in data set [4] it was 8-16. This compound registered a 50% cytotoxic concentration (CC50) at 24 h in “in vitro” of 8 to 16 mg/L (≈ 22.6 to 45.1 µM). In “in vitro”, this compound showed a half-maximal cytotoxic concentration (CC50) at 48 h of 8 to 16 mg/L (≈ 22.6 to 45.1 µM). The same compound had an MIC in data set [5] (MRSA) of 2 mg/L (≈ 5.64 µM).

Consider `N=C(N)NCCc1ccc(OCCCCCCOc2ccc(CCNC(=N)N)cc2)cc1` [compound 6, 1,6-bis(4-(2-guanidinoethyl)phenoxy)hexane], for which the concentration for half-maximal inhibition (IC50) in data set [1] (MRC5, MRC-5, 24 h) is 8 to 16 mg/L (≈ 18.2 to 36.3 µM); in data set [1] (MRC5, MRC-5, 48 h) it was 4 to 8 mg/L (≈ 9.08 to 18.2 µM); in data set [1] (MRC5, MRC-5, 168 h), 0.5 to 1 mg/L (≈ 1.13 to 2.27 µM); in data set [2] (24 h) it was 4 to 8 mg/L (≈ 9.08 to 18.2 µM); in data set [2] (48 h), 4 to 8 mg/L (≈ 9.08 to 18.2 µM); in data set [2] (168 h) it was 1 to 2 mg/L (≈ 2.27 to 4.54 µM). Further, the “Selectivity index (SI=IC50/MIC)” value is reported as 1-2 in data set [3] and 8-16 in data set [4]. For the same compound, the CC50 at 24 h in “in vitro” fell in the range of 4 to 8 mg/L (≈ 9.08 to 18.2 µM). In addition, the MIC in data set [5] (setting [6]) is below 1 mg/L.
